# Measured values reported in patent publication US9119881B2, “Method of synergistically enhancing the therapeutic efficacy and safety of medication through a combination therapy” (priority 2010, dated 2015).
# Marks after values point to notes of the source that are not given here.
# Legend:
# [1] = Dietary ABA and rosiglitazone in obese db/db mice: body and organ weights; format: in vivo; conditions: db/db mice, ABA 100 mg/kg diet, day 60
# Protocol: Twelve-fifteen week-old BKS.Cg-+Lepr^db/+Lepr^db/OlaHsd (db/db) mice were housed at the animal facilities at Virginia Polytechnic Institute and State University in a room maintained at 75° F., with a 12:12 h light-dark cycle starting from 6:00 AM. All experimental procedures were approved by the Institutional Animal Care and Use Committee of Virginia Polytechnic Institute and State University and met or exceeded requirements of the Public Health Service, National Institutes of Health and the Animal Welfare Act. […] Louis, Mo.) for 60 days. Mice were weighed and fasting (12 h) blood glucose levels were taken weekly. Blood glucose levels were assessed with an ACCU-CHEK® Glucometer (Roche, Indianapolis, Ind.). […] On day 60 mice were sacrificed by CO2 narcosis with secondary thoracotomy. Abdominal WAT, inguinal subcutaneous WAT, and liver were then excised and weighed. Abdominal and subcutaneous WAT were then digested and fractionated.
# [2] = system: retinoid X receptor (RXR); assay: RXR luciferase reporter in transfected 3T3-L1 preadipocytes; format: cell-based; conditions: ABA 10 μM with 9-cis retinoic acid 10 μM
# Protocol: A pCMX.L-RXR or pCMX.RAR expression plasmid and a luciferase reporter plasmid were purified using Qiagen's Maxi kit (Valencia, Calif.). 3T3-L1 preadipocytes (American Type Culture Collection, Manassas, Va.) were grown in DMEM high glucose medium (Invitrogen, Carlsbad, Calif.) containing 10% fetal bovine serum (FBS). The cells cultured in 25 cm^2 flasks were co-transfected with 0.6 ug plasmid DNA and 1 ng of pRL reporter control plasmid per well using F-2 transfection reagents (Targeting Systems, Santee, Calif.) according to the manufacturer's protocol. After 24 hours, transfected cells were split trypsin and seeded into 96-well white plates at a concentration of 20,000 cells/wells. The transfected cells were then treated with 9-cis retinoic acid (0, 10 μM; Sigma), or retinoic acid (RA, 10 μM; Sigma), with ABA (10 μM; Sigma) Transfected cells were harvested in reporter lysis reagent. Luciferase activity, normalized to pRL activity in the cell extracts was determined by using the dual luciferase reporter assay system (Promega, Madison, Wis.) in a Modulus 96-well plate reader (Turner Biosystems, Sunnyvale, Calif.). Relative luciferase activity (RLA) was calculated as a ratio of the chemiluminescence 10 seconds after the Luciferase Assay Reagent II (Promega) was added over the chemiluminescence 10 seconds after the Stop&Glo Reagent (Promega).
# [3] = system: stromal vascular cells (SVCs); assay: Gene expression in LPS-treated stromal vascular cells; format: cell-based, mice; conditions: LPS 100 ng/mL, 6 h, ABA 10 μM, rosiglitazone 1 μM
# Protocol: SVCs from abdominal white adipose tissue were isolated from db/db mice fed high-fat control diet for 60 days. Cells were seeded into 24-well plates at 1×10^6 cells/well and treated with LPS (100 ng/mL) with and without ABA (10 μM), Ros (1 μM), or ABA and Ros (ABA/Ros). The relative expressions of genes peroxisome proliferator activated receptor γ (PPAR γ) (A), CCL17 (B), monocyte chemoattractant protein 1 (MCP-1) (C), and mannose receptor (D) were calculated as a ratio to the housekeeping gene β-actin. Data are represented as mean±standard error.
# Isolated cells from the stromal vascular fraction (SVF) of WAT from high-fat fed db/db mice were enumerated and seeded into 24-well plates at […] cells/well. […]
# Total RNA was isolated from adipose tissue using the RNeasy Lipid Mini Kit (Qiagen) and from cells using the RNeasy Mini Kit (Qiagen) according to the manufacturer's instructions. […] Each gene amplicon was purified with the MiniElute PCR Purification Kit (Qiagen) and quantitated on an agarose gel by using a DNA mass ladder (Promega). […]
# Complementary DNA (cDNA) concentrations for genes of interest were examined by real-time quantitative PCR using an iCycler IQ System and Sybr Green PCR master mix (Applied Biosystems, Foster City, Calif.). […] Results are presented as starting quantity of target cDNA (picograms) per microgram of total RNA.
structure (smiles),measurement,setting,value
"CC1=CC(=O)CC(C)(C)C1(O)/C=C/C(C)=C\C(=O)O (racemic) [ABA, abscisic acid]",Ab. WAT % Body Weight,[1]; no rosiglitazone,4.7 ± 0.68^a % Body Weight
same,Sc. WAT % Body Weight,[1]; no rosiglitazone,2.8 ± 0.48 % Body Weight
same,Ab. WAT as percent body weight (in words),[1]; Ros^hi,significantly and independently reduced
same,inguinal SCAT weight (in words),[1]; Ros^hi,little affect
same,activity of RXR ligands,[2],synergistically enhances
same,M1 marker CCL17 expression,[3],significantly reduced
